Measurements taken from patent publication US10995177B2 (priority 2018, dated 2021).

Assays:
[1] = test system: MDR clinical isolates of K. pneumoniae, E. coli, A. baumannii, P. aeruginosa, E. faecium and MRSA; test: MIC by broth microdilution against different types and strains of MDR clinically isolated bacteria; type: cell-based; conditions: Gram-negative and Gram-positive MDR clinical isolates
Protocol: The MICs of the guanidinium functionalized polymers and the respective antibiotics against the clinical isolates were measured via the broth microdilution method. In accordance with the broth microdilution method, the MDR microbes including one or more strains of K. pneumoniae, E. coli, A. baumannii, P. aeruginosa, E. coli, E. faecium, and MRSA were harvested in mid exponential growth phase after grown overnight in Mueller-Hinton (MH) agar plates at 37° C. The antimicrobial agents were prepared in MH broth (MHB) at various concentrations. The bacteria suspensions were then diluted with phosphate-buffer saline (PBS, PH 7.4) to adjust the turbidity approximately to the Standard McFarland 0.6, which corresponds to the concentration of 1×10^8 colony-forming unit (CFU)/mL, after which the bacteria suspension was further diluted by 100-fold with MHB (1×10^6 CFU/mL). Subsequently, equal volumes (100 microliters (μL)) of bacterial suspension and agent solution prepared previously were mixed in each well of a 96-well plate and incubated for 18 h at 37° C. Broth containing bacteria alone was employed as the negative control, and each MIC was tested in triplicate.
To facilitate comparison, imipenem and vancomycin, typical first-line therapies against Gram-negative and Gram-positive pathogens, were employed as standards or control antibiotics.

[2] = test system: K. pneumoniae 9170; test: In vivo efficacy (ED50/ED95) in bacteria-caused lung infection mouse model; design: species or system mice; conditions: Klebsiella pneumoniae, 9170, ip
Protocol: In this regard, immunosuppressed mice (7 weeks old) were used for the following in vivo studies. Immunosuppression was induced by intraperitoneal injection of 200 mg/kg cyclophosphamide 4 days prior to infection. The mice were anesthetized by intraperitoneal injection of 1% pentobarbital (40 mg/kg, Sigma). The mice were then infected with K. pneumoniae 9170 to determine the minimum lethal dose for subsequent effective does and efficacy testing. Overnight cultures of K. pneumoniae 9170 were harvested and suspended in PBS. Subsequently, the cyclophosphamide-pretreated mice were intranasally injected with 25.0 μL of the bacterial suspension at designated doses (e.g., 1.0×10^8, 2.5×10^8, 5×10^8, 1.0×10^9, 2.0×10^9 CFU/mL, six mice per group). The minimum lethal dose (LD), the lowest concentration sufficient to cause 100% mortality, was determined from the survival rate of mice at 5 days post-infection by the BLISS method.
The effective doses ED50 and ED95 doses of the respective polymers and imipenem for comparison, were tested using a bacteria-caused lung infection mouse model as follows. Firstly, a bacterial suspension with the minimum lethal dose (25.0 μL) was introduced to the above described cyclophosphamide-pretreated mice intranasally. […] The number of surviving mice in each group was recorded for 5.0 day to estimate ED50 and ED95 via the BLISS method.

[3] = test system: K. pneumoniae 9170; test: Resistance development by serial passaging at sub-lethal concentrations; type: cell-based, Klebsiella pneumoniae
Protocol: To test bacterial resistance and resistance prevention, a sub-lethal dose (so as to not kill all bacteria) of the respective antimicrobials was repeatedly applied to K. pneumoniae samples for 24 hours at each passage, wherein the bacteria were allowed to replicate and/or mutate. MIC values of the respective antimicrobials were then measured after each repetition to monitor MIC changes. An increase in MIC value indicates development of resistance in the bacteria. In particular, samples of K. pneumoniae 9170 bacteria were first exposed to the respective antimicrobials (e.g., All polymers having Structures I, IV and V, imipenem and levofloxacin) for the determination of MICs as described above. Subsequently, 50 μL of bacteria from wells of 0.5×MIC were harvested and grown overnight, and then subjected to MIC determination for up to 20 similar serial passages (e.g., 20 single applications once a day for 20 days).
Unfortunately, antibiotic resistance has raised a global concern over the past few years.

Compound | spectrum of antibacterial activity [1] | ED50 [2] [mg/kg] | increase of MIC ([3]; by the 11th passage) [times] | increase of MIC ([3]; by the 20th passage) [fold] | increase of MIC ([3]; by the 7th passage) [times]
CN[C@H](CC(C)C)C(=O)N[C@H]1C(=O)N[C@@H](CC(N)=O)C(=O)N[C@H]2C(=O)N[C@H]3C(=O)N[C@H](C(=O)N[C@H](C(=O)O)c4cc(O)cc(O)c4-c4cc3ccc4O)[C@H](O)c3ccc(c(Cl)c3)Oc3cc2cc(c3O[C@@H]2O[C@H](CO)[C@@H](O)[C@H](O)[C@H]2O[C@H]2C[C@](C)(N)[C@H](O)[C@H](C)O2)Oc2ccc(cc2Cl)[C@H]1O [vancomycin] | only demonstrated efficacy against Gram-positive strains |  |  |  | 
C[C@@H](O)[C@H]1C(=O)N2C(C(=O)O)=C(SCCN=CN)C[C@H]12 [imipenem] |  | 5.93 | 2 | 4 | 
C[C@H]1COc2c(N3CCN(C)CC3)c(F)cc3c(=O)c(C(=O)O)cn1c23 [levofloxacin] |  |  |  | 16 | 2
